Earlier results in US6958144B2, “Methods of whitening teeth” (Britesmile Development, Inc., priority 1995, dated 2005).

Conditions: 10% carbamide peroxide solution, background statement

NC(N)=O.OO [carbamide peroxide]
equilibrium pH: approximately 3.45
